Biological target: recombinant human PARP (Homo sapiens, UniProt P09874)
Experiment: PARP activity: transfer of radiolabeled ADP-ribose units from [32P]NAD+ to a protein acceptor
Format: biochemical
Conditions: Table 3
Experimental: PARP activity was monitored by transfer of radiolabeled ADP-ribose units from [^32P]NAD^+ to a protein acceptor such as histone or PARP itself. […] The reactions were initiated by the addition of 100 μM NAD^+ supplemented with 2 uCi [^32P]NAD^+/mL and maintained at room temperature for 12 minutes. Assays were terminated by the addition of […] and the radiolabeled precipitate was collected on a 96-well filter plate (Millipore, MADP NOB 50), washed with 25% TCA. The amount of acid-insoluble radioactivity, corresponding to polyADP-ribosylated protein, was quantitated in a Wallac MicroBeta scintillation counter.
Single-point inhibition data were calculated by comparing PARP, VEGFR2, or MLK3 activity in the presence of inhibitor to activity in the presence of DMSO only. Inhibition curves for compounds were generated by plotting percent inhibition versus log10 of the concentration of compound. IC50 values were calculated by nonlinear regression using the sigmoidal dose-response (variable slope) equation in GraphPad Prism as follows: y=bottom+(top−bottom)/(1+10^(logIC^50^−x)*Hillslope) where y is the % activity at a given concentration of compound, x is the logarithm of the concentration of compound, bottom is the % inhibition at the lowest compound concentration tested, and top is the % inhibition at the highest compound concentration examined. […]

recombinant human PARP, sequence (P09874 whole entry): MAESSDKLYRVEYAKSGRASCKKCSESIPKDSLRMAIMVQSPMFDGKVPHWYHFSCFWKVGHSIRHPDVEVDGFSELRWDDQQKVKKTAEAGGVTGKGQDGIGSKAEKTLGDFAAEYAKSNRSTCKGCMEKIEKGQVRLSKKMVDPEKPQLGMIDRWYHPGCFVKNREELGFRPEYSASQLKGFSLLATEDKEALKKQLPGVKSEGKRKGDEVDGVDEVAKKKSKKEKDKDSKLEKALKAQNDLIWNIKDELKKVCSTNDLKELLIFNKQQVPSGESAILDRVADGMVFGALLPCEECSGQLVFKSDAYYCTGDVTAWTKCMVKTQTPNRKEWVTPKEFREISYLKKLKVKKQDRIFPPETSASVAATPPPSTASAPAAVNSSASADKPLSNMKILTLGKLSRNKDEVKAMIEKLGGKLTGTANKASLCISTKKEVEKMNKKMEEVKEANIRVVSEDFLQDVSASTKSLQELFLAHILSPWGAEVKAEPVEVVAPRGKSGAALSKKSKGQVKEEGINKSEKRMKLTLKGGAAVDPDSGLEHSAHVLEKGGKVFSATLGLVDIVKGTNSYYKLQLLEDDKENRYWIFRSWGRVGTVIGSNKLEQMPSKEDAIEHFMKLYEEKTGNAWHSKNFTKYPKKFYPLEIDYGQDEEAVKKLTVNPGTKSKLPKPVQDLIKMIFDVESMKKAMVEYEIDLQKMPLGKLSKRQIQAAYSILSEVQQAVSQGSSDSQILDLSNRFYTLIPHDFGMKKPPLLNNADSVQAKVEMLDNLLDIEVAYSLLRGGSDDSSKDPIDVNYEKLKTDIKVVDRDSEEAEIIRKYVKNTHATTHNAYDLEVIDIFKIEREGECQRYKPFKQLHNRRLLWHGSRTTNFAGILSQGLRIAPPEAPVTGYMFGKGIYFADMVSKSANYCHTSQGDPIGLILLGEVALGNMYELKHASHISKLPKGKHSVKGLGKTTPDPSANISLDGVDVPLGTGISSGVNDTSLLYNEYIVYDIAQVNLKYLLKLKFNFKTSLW

SMILES: NCCCCC(N)C(=O)N1C(=O)c2c3c(c4[nH]c5ccc(Br)cc5c4c2C1=O)CCC3 (stereo not shown) [Compound 6e]
- IC50: 69 nM

— patent US7122679B2, “Multicyclic compounds and the use thereof” (Cephalon, Inc., priority 2000, dated 2006)
